From patent publication EP0508725A1, “Novel process for the preparation of 8a-aza-8a-homoerythromycin cyclic iminoethers” (MERCK & CO. INC., priority 1991, dated 1992)

How the values were obtained:
Experiment in all cases: MIC, liquid turbidimetric microtiter method in brain heart infusion broth
Type in all cases: cell-based
[1] = test system: Enterococcus faecalis MB 5407
Source text: (§1) The antibacterial activities of compound (VII) against a panel of aerobic Gram positive and negative bacteria is shown in the following Table. The assay employs a liquid turbidimetric microtiter method for the determination of the minimum inhibitory concentration (MIC) in brain heart infusion broth. […] The MIC is generally not an absolute value but rather a concentration ranged that falls within a two-fold dilution limit. Generally twelve two-fold dilutions of the test compound are employed with the initial concentration set at 128 mcg/ml.

[2] = test system: Enterococcus faecium MB 5416
Source text: as §1

[3] = test system: Escherichia coli MB 2884
Source text: as §1

[4] = test system: Escherichia coli MB 4926
Source text: as §1

[5] = test system: Klebsiella pneumoniae MB 4005
Source text: as §1

[6] = test system: Pseudomonas stutzeri MB 1231
Source text: as §1

[7] = test system: Staphylococcus aureus MB 2865
Source text: as §1

[8] = test system: Staphylococcus epidermidis MB 5414
Source text: as §1

[9] = test system: Staphylococcus haemolyticus MB 5412
Source text: as §1

[10] = test system: Steptococcus viridans CL 2943
Source text: as §1

[11] = test system: Streptococcus agalactiae CL 1343
Source text: as §1

[12] = test system: Streptococcus pneumoniae CL 2883
Source text: as §1

[13] = test system: Streptococcus pyogenes MB 2874
Source text: as §1

[14] = test system: Streptococcus pyogenes MB 5406
Source text: as §1

[15] = test system: Yersinia enterocoltica CL 1598
Source text: as §1

CC[C@H]1OC(=O)[C@H](C)[C@@H](O[C@H]2C[C@@](C)(OC)[C@@H](O)[C@H](C)O2)[C@H](C)[C@@H](O[C@@H]2O[C@H](C)C[C@H](N(C)C)[C@H]2O)[C@](C)(O)C[C@@H](C)N=C2O[C@@]1(C)[C@H](O)[C@H]2C [Compound (VII), 9-Deoxo-12-deoxy-9,12-epoxy-8a,9-didehydro-8a-aza-8a-homoerythromycin A]
MIC Values [1]: 32 mcg/m | MIC Values [2]: 8 mcg/m | MIC Values [3]: 128 mcg/m | MIC Values [4]: 8 mcg/m | MIC Values [5]: >128 mcg/m | MIC Values [6]: 0.5 mcg/m | MIC Values [7]: 16 mcg/m | MIC Values [8]: 32 mcg/m | MIC Values [9]: 8 mcg/m | MIC Values [10]: 16 mcg/m | MIC Values [11]: 1 mcg/m | MIC Values [12]: 0.5 mcg/m | MIC Values [13]: 1 mcg/m | MIC Values [14]: 128 mcg/m | MIC Values [15]: 128 mcg/m
